Article PMC7163917 (European journal of medicinal chemistry, 2020)
Where two headings read alike, the source gives them in different places.

Tests used:
STEP [1] = target: T1, STEP (Homo sapiens, UniProt P54829); assay: Ki measurement and Lineweaver-Burk kinetic analysis of STEP inhibition; type: biochemical; conditions: pNPP, pH 6.0, 30 °C
T1 sequence (P54829 300-555 limits assumed): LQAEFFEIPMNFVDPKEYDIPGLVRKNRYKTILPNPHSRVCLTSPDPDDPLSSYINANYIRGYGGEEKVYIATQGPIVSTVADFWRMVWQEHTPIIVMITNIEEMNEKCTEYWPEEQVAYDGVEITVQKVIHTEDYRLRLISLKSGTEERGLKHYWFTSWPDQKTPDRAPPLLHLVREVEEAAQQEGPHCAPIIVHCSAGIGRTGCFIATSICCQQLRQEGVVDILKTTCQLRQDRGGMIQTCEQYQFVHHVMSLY

[2] = tested on: phosphorylation of ERK1/2 in PC12 cells; assay: NGF-induced phosphorylation of ERK1/2 in PC12 cells; type: cell-based; conditions: 20 μM inhibitor, NGF 5 min
[3] = tested on: phosphorylation of Pyk2 in PC12 cells; assay: NGF-induced phosphorylation of Pyk2 in PC12 cells; type: cell-based; conditions: 20 μM inhibitor, NGF 5 min
STEP F523A mutant = STEP F523A mutant (Homo sapiens, UniProt P54829, F547A)
STEP [4] = target: T1, STEP; assay: STEP-catalyzed pNPP hydrolysis inhibition; type: biochemical; conditions: ST3 analogs, removal of carboxyl and hydroxyl group

Sequence of STEP F523A mutant (P54829 282-563 F547A): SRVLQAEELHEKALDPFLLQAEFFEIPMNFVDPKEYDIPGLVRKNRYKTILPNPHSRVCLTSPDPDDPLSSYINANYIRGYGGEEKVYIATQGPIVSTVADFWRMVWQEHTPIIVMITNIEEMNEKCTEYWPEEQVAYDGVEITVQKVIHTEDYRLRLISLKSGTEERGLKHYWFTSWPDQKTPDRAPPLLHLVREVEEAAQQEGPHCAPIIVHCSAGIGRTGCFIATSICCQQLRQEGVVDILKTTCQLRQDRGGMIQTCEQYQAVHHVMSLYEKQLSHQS

effect of structural change on STEP inhibitory activity (STEP [4])	Structure (SMILES)	inhibition pattern (Lineweaver-Burk plot) (STEP [1])	effect on NGF-induced phosphorylation of ERK1/2 [2]	effect on NGF-induced phosphorylation of Pyk2 [3]	inhibitory activity in STEP F523A mutant compared with wild type (STEP F523A mutant; STEP F523A mutant)	inhibitory activity in STEP F523A mutant compared with wild type (STEP F523A mutant)
–	Cc1cc(C(=O)O)ccc1-c1ccc(C=C2C(=O)c3ccccc3C2=O)o1 [ST3–5]	competitive	significantly increased	significantly increased	decreased	–
–	O=C(O)c1cccc2c1NC(c1cccc(Br)c1)C1CC(Sc3ccccc3[N+](=O)[O-])C(Cl)C21 (centres unmarked) [ST2]	competitive	significantly increased	significantly increased	–	decreased
significantly decreased	Cc1cc(-c2ccc(/C=C3\Sc4ccccc4C3=O)o2)ccc1Cl [ST3–1]	–	–	–	–	–
–	O=C(O)c1cc(-c2ccc(/C=C3\Sc4ccccc4C3=O)o2)ccc1O [ST3]	competitive	significantly increased	significantly increased	–	–
significantly decreased	COC(=O)c1cccc(-c2ccc(/C=C3\Sc4ccccc4C3=O)o2)c1 [ST3–3]	–	–	–	–	–
–	O=C(O)c1cccc2c1NC(c1ccc(F)cc1)C1CC(Sc3ccccc3[N+](=O)[O-])C(Cl)C21 (centres unmarked) [ST2–5]	competitive	significantly increased	significantly increased	–	decreased
